# Measurements as given in patent publication US20100311756A1, “METHODS FOR DELAYING THE PROGRESSION OF AT LEAST ONE OF CARDIAC HYPERTROPHY, CARDIAC REMODELING OR LEFT VENTRICULAR FUNCTION OR THE ONSET OF HEART FAILURE IN SUBJECTS IN NEED OF TREATMENT THEREOF” (TAKEDA PHARMACEUTICALS NORTH AMERICA, INC., priority 2009, published 2010).
# “Also recorded” adds a separate entry of the source. Marks after values point to notes of the source that are not given here.
# Assays:
# [1] = tested on: enzymes involved in purine and pyrimidine metabolism; conditions: Takano et al., Life Sciences 2005; cited from earlier work
# [2] = tested on: mice subjected to TAC or sham surgery; test: TAC or sham surgery in mice, Protocol 2: febuxostat or allopurinol for three weeks beginning seven days after TAC; assay type: in vivo; conditions: for Anterior wall thickness at end-diastole / Anterior wall thickness at end-systole / LV ejection fraction / LV end-diastolic diameter / LV end-systolic diameter / LV fractional shortening / Lung weight / Lung/body weight / Posterior wall thickness at end-diastole / Posterior wall thickness at end-systole / Ventricle weight / Ventricle/body weight: drinking water (FBS 0.05 mg/ml, allopurinol 0.15 mg/ml) three weeks from day 7; for Survival rate: over the three-week treatment period; for TAC-induced ventricular fibrosis: histological staining
# Text: (§1) • Mice. Male C57/BL6 mice at 8-9 weeks of age were purchased from Jackson Laboratories (Bar Harbor, Me.) for use in this study. Mice were housed in an air-conditioned room with a 12-hour:12-hour light-dark cycle, received standard mouse chow, and drank tap water. This study was approved by the Institutional Animal Care and Use Committee of the University of Minnesota. • Experimental Protocol 1. This protocol was designed to determine whether febuxostat (2-[3-cyano-4-(2-methylpropoxy)phenyl]-4-methylthiazole-5-carboxylic acid) treatment, beginning immediately after the onset of acute pressure overload, could protect against transverse aortic constriction (TAC)-induced left ventricular (LV) hypertrophy, dysfunction and mortality. Three treatment groups were included (See Table 1, below): sham-operated mice (n=20), TAC mice treated with vehicle (0.5% methylcellulose) (n=30), and TAC mice treated with febuxostat (suspension in 0.5% methylcellulose) (n=30). To generate LV hypertrophy in a short time period with a significant incidence of cardiac mortality, TAC was created by ligating the transverse aorta against a 27 G needle to create severe LV pressure overload. Since mice tend to take in less water and food during the first 1-3 days after the TAC procedure, febuxostat (5 mg/kg/day in 250 μl vehicle) or vehicle (250 μl) was administered daily by oral gavage for a total of 8 days, with the first dose administered on the day of the surgery after the animal awoke from anesthesia (˜60 min after the TAC procedure). On the eighth day, LV function was assessed by echocardiography approximately 1 hour after the last febuxostat or vehicle dose. Approximately 3 hours after echocardiographic evaluation (4 hours after the last febuxostat or vehicle dose), the mice were weighed and blood samples collected. The animals were euthanized and the heart and lungs excised; the right and left atria were trimmed away, and the ventricles and lungs were weighed. Tissue from the left ventricle was used for histological evaluation and Western blots. • Experimental Protocol 2. This protocol was designed to determine whether administration of febuxostat (FBS) or allopurinol (AL) beginning after the onset of cardiac hypertrophy, LV dysfunction and heart failure could exert a protective effect. For this protocol, mice subjected to TAC (using a 26 gauge (G) needle to generate moderate TAC) or sham surgery were divided into six experimental groups as described in Table 1, below. Beginning seven days after TAC, animals were treated with vehicle (0.01 mg/ml NaCl, equivalent salt content as in the FBS drinking water), FBS (0.05 mg/ml) or AL (0.15 mg/ml) in drinking water for three weeks. Following three weeks of treatment, ventricular function was assessed by echocardiography. Blood samples and cardiac tissue were collected during 2-3 hours after the echocardiographic evaluation as described previously in Protocol 1.
# (§2) • Minimally Invasive TAC Procedure. TAC was performed using the minimally invasive suprasternal approach described by Hu et al. (See, Hu et al., Am. J. Physiol. Heart Circ. Physiol., 3:H1261-9 (2003)). Mice were anesthetized with a mixture of 80 mg/kg ketamine and 30 mg/kg xylazine intraperitoneally. A horizontal incision was made at the level of the suprasternal notch to allow direct visualization of the transverse aorta without entering the pleural space. With the aid of a dissecting microscope, aortic constriction was performed by ligating the aorta between the right innominate artery and the left carotid artery over a 27 G) needle using 5-0 silk suture. The needle was immediately removed after ligation, leaving the aortic constriction in place. The incision was closed and the animals were allowed to recover. Analgesia was provided before the mice awoke from anesthesia. Sham surgery utilized the same procedure but without aortic ligation. • Echocardiography.
# TAC mice = test: Transverse aortic constriction (TAC) in mice, Protocol 1: febuxostat for 8 days beginning ~60 min after TAC; assay type: in vivo
# Text: as §1, §2
# [3] = sham-operated mice, three-week treatment
# [4] = 5 mg/kg/day oral gavage for 8 days from ~60 min after TAC
# [5] = 8 days, versus TAC vehicle, listed as FBS
# [6] = sham-operated mice, three-week treatment, versus vehicle
compound,measurement,setting,value
Oc1ncnc2[nH]ncc12 [allopurinol],Cross-inhibition on other purine and pyrimidine metabolism enzymes such as purine nucleoside phosphorylase and orotidine-5′-monophosphate decarboxylase,[1],cross-inhibition
same,Anterior wall thickness at end-diastole,[2]; TAC mice,0.87 ± 0.02^a mm
same,Anterior wall thickness at end-systole,[2]; TAC mice,1.20 ± 0.03^a mm
same,LV ejection fraction,[2]; TAC mice,60.2 ± 2.2^a %
same,LV end-diastolic diameter,[2]; TAC mice,4.21 ± 0.08^a mm
same,LV end-systolic diameter,[2]; TAC mice,3.09 ± 0.10^a mm
same,LV fractional shortening,[2]; TAC mice,26.8 ± 1.4^a %
same,Lung weight,[2]; TAC mice,166 ± 16 mg
same,Lung/body weight,[2]; TAC mice,6.98 ± 0.94 mg/g
same,Posterior wall thickness at end-diastole,[2]; TAC mice,0.88 ± 0.02^a mm
same,Posterior wall thickness at end-systole,[2]; TAC mice,1.20 ± 0.03^a mm
same,Ventricle weight,[2]; TAC mice,153 ± 6^a mg
same,Ventricle/body weight,[2]; TAC mice,6.27 ± 0.36^a mg/g
same,Lung/body weight,"[2]; TAC mice, listed as AL",no significant effect
same,Ventricle/body weight,"[2]; TAC mice, listed as AL",no significant effect
same,Survival rate,[2]; TAC mice,76%
same,Plasma uric acid,"[2]; TAC mice, three-week treatment",decreased
same,TAC-induced ventricular fibrosis,"[2]; TAC mice, three-week treatment",not affected
same,LV function and dimensions (echocardiography),"[2]; TAC mice, three-week treatment, versus vehicle-treated TAC mice",no effect
same,Anterior wall thickness at end-diastole,[2]; sham mice,0.74 ± 0.01 mm
same,Anterior wall thickness at end-systole,[2]; sham mice,1.11 ± 0.04 mm
same,LV ejection fraction,[2]; sham mice,77.7 ± 2.1%
same,LV end-diastolic diameter,[2]; sham mice,3.71 ± 0.06 mm
same,LV end-systolic diameter,[2]; sham mice,2.22 ± 0.07 mm
same,LV fractional shortening,[2]; sham mice,40.1 ± 2.0%
same,Lung weight,[2]; sham mice,131 ± 3 mg
same,Lung/body weight,[2]; sham mice,5.40 ± 0.14 mg/g
same,Posterior wall thickness at end-diastole,[2]; sham mice,0.74 ± 0.01 mm
same,Posterior wall thickness at end-systole,[2]; sham mice,1.11 ± 0.03 mm
same,Ventricle weight,[2]; sham mice,100 ± 3 mg
same,Ventricle/body weight,[2]; sham mice,4.13 ± 0.12 mg/g
same,Lung weight,"[2]; sham mice, listed as AL",no significant effects
same,Lung/body weight,"[2]; sham mice, listed as AL",no significant effects
same,Ventricle weight,"[2]; sham mice, listed as AL",no significant effects
same,Ventricle/body weight,"[2]; sham mice, listed as AL",no significant effects
same,LV function and dimensions (any of the parameters evaluated by echocardiography),[2]; [3],no effect
same,Plasma uric acid,[2]; [3],significantly decreased
"Cc1nc(-c2ccc(OCC(C)C)c(C#N)c2)sc1C(=O)O [febuxostat, 2-[3-cyano-4-(2-methylpropoxy)phenyl]-4-methylthiazole-5-carboxylic acid]",Anterior wall thickness at end-diastole,TAC mice; [4],0.84 ± 0.02 mm
same,Anterior wall thickness at end-systole,TAC mice; [4],1.10 ± 0.04 mm
same,LV fractional shortening,TAC mice; [4],"31.5 ± 2.2*^,# %"
same,Lung weight,TAC mice; [4],163 ± 16 mg
same,Posterior wall thickness at end-diastole,TAC mice; [4],"0.83 ± 0.02*^,# mm"
same,Posterior wall thickness at end-systole,TAC mice; [4],1.10 ± 0.03 mm
same,Ventricle weight,TAC mice; [4],"138 ± 7.0*^,# mg"
same,Cardiac myocyte diameter,TAC mice; 8 days,16.3±0.3 μm
same,Mortality (mice died),TAC mice; 8 days,14 out of 30
same,Myocardial fibrosis,TAC mice; 8 days,8.3±2. %
same,TAC-induced left ventricular (LV) hypertrophy,"TAC mice; 8 days, FIG. 1A",significantly attenuated
same,TAC-induced pulmonary congestion,"TAC mice; 8 days, FIG. 1B",tended to decrease
same,TAC-induced cardiac sudden death / mortality (effect),"TAC mice; 8 days, FIG. 1C",not affected; also recorded: no effect
same,TAC-induced increase of myocardial ANP,"TAC mice; 8 days, Western blot of LV",significantly attenuated
same,TAC-induced increase of myocardial collagen III,"TAC mice; 8 days, Western blot of LV",significantly attenuated
same,TAC-induced increase of myocardial nitrotyrosine,"TAC mice; 8 days, Western blot of LV",significantly blunted
same,TAC-induced increase of myocardial pre-collagen I,"TAC mice; 8 days, Western blot of LV",significantly attenuated
same,TAC-induced increase of p-Erk Thr202/204,"TAC mice; 8 days, Western blot of LV",significantly attenuated
same,TAC-induced increase of p-mTOR Ser2488,"TAC mice; 8 days, Western blot of LV",significantly attenuated
same,TAC-induced increase of t-Erk,"TAC mice; 8 days, Western blot of LV",significantly attenuated
same,TAC-induced increase of myocardial nitrotyrosine,"TAC mice; 8 days, Western blot of LV, listed as FBS",significantly attenuated
same,Decrease of pulmonary congestion (ratio of lung weight to body weight),"TAC mice; 8 days, versus TAC vehicle",about 18%
same,LV diameter at end-diastole,"TAC mice; 8 days, versus TAC vehicle",no significant effect
same,Plasma uric acid,"TAC mice; 8 days, versus TAC vehicle",significantly decreased
same,Reduction of ventricular hypertrophy (ratio of ventricular mass to body weight),"TAC mice; 8 days, versus TAC vehicle",approximately 15%
same,TAC-induced decrease of LV ejection fraction,"TAC mice; 8 days, versus TAC vehicle",attenuated
same,TAC-induced decrease of LV fractional shortening,"TAC mice; 8 days, versus TAC vehicle",attenuated
same,TAC-induced increase of LV diameter at end-systole,"TAC mice; 8 days, versus TAC vehicle",trend toward attenuating
same,TAC-induced increase of LV end-diastolic wall thickness,"TAC mice; 8 days, versus TAC vehicle",significantly attenuated
same,LV diameter at end-diastole,TAC mice; [5],not changed
same,TAC-induced decrease of LV ejection fraction,TAC mice; [5],significantly attenuated
same,TAC-induced increase of LV diameter at end-systole,TAC mice; [5],trend toward attenuation
same,Cross-inhibition on other purine and pyrimidine metabolism enzymes such as purine nucleoside phosphorylase and orotidine-5′-monophosphate decarboxylase,[1],avoids the cross-inhibition
same,Anterior wall thickness at end-diastole,[2]; TAC mice,0.85 ± 0.02^a mm
same,Anterior wall thickness at end-systole,[2]; TAC mice,1.19 ± 0.02^a mm
same,LV ejection fraction,[2]; TAC mice,63.9 ± 1.9^a %
same,Lung weight,[2]; TAC mice,170 ± 17 mg
same,Lung/body weight,[2]; TAC mice,6.59 ± 0.64 mg/g
same,Posterior wall thickness at end-diastole,[2]; TAC mice,0.84 ± 0.02^a mm
same,Posterior wall thickness at end-systole,[2]; TAC mice,1.18 ± 0.02^a mm
same,Ventricle weight,[2]; TAC mice,158 ± 6^a mg
same,Ventricle/body weight,[2]; TAC mice,6.11 ± 0.21^a mg/g
same,Survival rate,[2]; TAC mice,96%
same,LV end-diastolic wall thickness,"[2]; TAC mice, three-week treatment",unchanged
same,Plasma uric acid,"[2]; TAC mice, three-week treatment",decreased
same,TAC-induced cardiac myocyte hypertrophy,"[2]; TAC mice, three-week treatment",no effect
same,TAC-induced ventricular fibrosis,"[2]; TAC mice, three-week treatment",not affected
same,Improvement (increase) of LV ejection fraction,"[2]; TAC mice, three-week treatment, versus vehicle",~10%
same,Anterior wall thickness at end-diastole,[2]; sham mice,0.72 ± 0.02 mm
same,Anterior wall thickness at end-systole,[2]; sham mice,1.18 ± 0.04 mm
same,LV ejection fraction,[2]; sham mice,85.5 ± 1.6^a %
same,LV fractional shortening,[2]; sham mice,48.3 ± 2.2^a %
same,Lung/body weight,[2]; sham mice,5.42 ± 0.11 mg/g
same,Posterior wall thickness at end-diastole,[2]; sham mice,0.72 ± 0.02 mm
same,Posterior wall thickness at end-systole,[2]; sham mice,1.18 ± 0.04^a mm
same,Ventricle/body weight,[2]; sham mice,3.94 ± 0.07 mg/g
same,End-diastolic wall thickness,[2]; [3],did not change
same,Plasma uric acid,[2]; [3],significantly decreased
same,Increase in LV ejection fraction,[2]; [6],~9%
same,Increase in LV fractional shortening,[2]; [6],~15%
